In patent US20230055705A1, “SUBSTITUTED THIOPHENE CARBOXAMIDES AND DERIVATIVES THEREOF” (Bayer Aktiengesellschaft, priority 2019, published 2023):

Tested on: Pseudomonas syringae pv. tomato
Assay: Pseudomonas syringae pv. tomato in vitro cell test
Format: cell-based
Settings: 20 ppm of active ingredient, 24 h incubation, read-out: efficacy (inhibition of bacteria growth)
Experimental: Culture medium: LB broth medium (Luria Broth Miller) Sigma
Inoculum: bacteria suspension
Compounds were solubilized in DMSO and the solution used to prepare the required range of concentrations. The final concentration of DMSO used in the assay was 1%.
(§1) Inoculum was prepared from a pre-culture of bacteria grown in liquid medium and diluted to the desired optical density (OD).
(§2) Compounds were evaluated for their ability to inhibit bacteria growth in liquid culture assay. The compounds were added in the desired concentrations to culture medium containing the bacteria suspension. After 24 h of incubation, the efficacy of compounds was determined by spectrometric measurement of bacteria growth. Inhibition was determined by comparing the absorbance values in wells containing the compounds with the absorbance in control wells without active ingredients.

| SMILES | inhibition at 20 ppm [%] |
| --- | --- |
| CCSC(=O)C1(NC(=O)c2sc(Cl)c(Cl)c2Cl)CC1 [I.011, S-ethyl 1-{[(3,4,5-trichloro-2-thienyl)carbonyl]amino}cyclopropanecarbothioate] | ≤ 30 |
| CCOC(=O)C(NC(=O)c1sc(Cl)c(Cl)c1Cl)c1ccccc1 (centres unmarked) [I.064] | ≤ 30 |
| CCOC(=O)C(CO)NC(=O)c1sc(Cl)c(Cl)c1Cl (centres unmarked) [I.078] | ≤ 30 |

Tested on: Peronospora parasitica
Assay: In vivo preventive test on Peronospora parasitica (Crucifer downy mildew)
Settings: Hyaloperonospora parasitica, in Brassica oleracea, 120 h, 31 ppm of active ingredient, cabbage, evaluated 5 days after inoculation, read-out: efficacy
Experimental: (§3) The tested active ingredients were prepared by homogenization in a mixture of acetone/Dimethyl sulfoxide/Tween®, and then diluted with water to obtain the desired active material concentration. The young plants of cabbage were treated by spraying the active ingredient prepared as described above. Control plants were treated only with an aqueous solution of acetone/Dimethyl sulfoxide/Tween®.
After 72 hours, the plants were contaminated by spraying the leaves with an aqueous suspension of Peronospora parasitica spores. The contaminated cabbage plants were incubated for 5 days at 20° C. and at 100% relative humidity.
The test was evaluated 5 days after the inoculation. 0% means an efficacy which corresponds to that of the control plants while an efficacy of 100% means that no disease was observed.
Compounds CMP2 and CMP3 were tested in an in vivo preventive test on Peronospora parasitica (Crucifer downy mildew) in the same conditions as described in Example G.

| SMILES | pest or weed control at 31 ppm [%] |
| --- | --- |
| CCSC(=O)C1(NC(=O)c2sc(Cl)c(Cl)c2Cl)CC1 [I.011, S-ethyl 1-{[(3,4,5-trichloro-2-thienyl)carbonyl]amino}cyclopropanecarbothioate] | 90 to 100 |
| CCOC(=O)C(NC(=O)c1sc(Cl)c(Cl)c1Cl)c1ccccc1 (centres unmarked) [I.064] | 80 to 89 |
| CCOC(=O)C(CO)NC(=O)c1sc(Cl)c(Cl)c1Cl (centres unmarked) [I.078] | 90 to 100 |

Same assay, conditions: Hyaloperonospora parasitica, in Brassica oleracea, 120 h, 125 ppm of active ingredient, cabbage, evaluated 5 days after inoculation, read-out: efficacy

| SMILES | pest or weed control at 125 ppm [%] |
| --- | --- |
| CCSC(=O)C1(NC(=O)c2sc(Cl)c(Cl)c2Cl)CC1 [I.011, S-ethyl 1-{[(3,4,5-trichloro-2-thienyl)carbonyl]amino}cyclopropanecarbothioate] | 90 to 100 |
| CCOC(=O)C(NC(=O)c1sc(Cl)c(Cl)c1Cl)c1ccccc1 (centres unmarked) [I.064] | 90 to 100 |
| CCOC(=O)C(CO)NC(=O)c1sc(Cl)c(Cl)c1Cl (centres unmarked) [I.078] | 90 to 100 |

Same assay, conditions: Hyaloperonospora parasitica, in Brassica oleracea, 120 h, 500 ppm of active ingredient, cabbage, evaluated 5 days after inoculation, read-out: efficacy

| SMILES | pest or weed control at 500 ppm [%] |
| --- | --- |
| CCSC(=O)C1(NC(=O)c2sc(Cl)c(Cl)c2Cl)CC1 [I.011, S-ethyl 1-{[(3,4,5-trichloro-2-thienyl)carbonyl]amino}cyclopropanecarbothioate] | 90 to 100 |
| CCOC(=O)C(NC(=O)c1sc(Cl)c(Cl)c1Cl)c1ccccc1 (centres unmarked) [I.064] | 90 to 100 |
| CCOC(=O)C(CO)NC(=O)c1sc(Cl)c(Cl)c1Cl (centres unmarked) [I.078] | 90 to 100 |

Tested on: salicylate responsive promoter sequence of the PR1 (pathogenesis-related protein I) gene (AT2G14610)
Assay: Induction of defense gene expression in Arabidopsis thaliana (PR1 promoter-GFP reporter plants)
Format: in vivo
Settings: Arabidopsis thaliana, 72 h; 75 ppm of compound; 3rd day after spraying; mock treated leaves set as 1.00; read-out: relative fluorescence value
Experimental: Arabidopsis thaliana reporter plants containing the coding sequence of a green fluorescent protein (GFP) linked to the salicylate responsive promoter sequence of the PR1 (pathogenesis-related protein I) gene (AT2G14610) were grown for five days and then sprayed with compounds. On the 3rd day after spraying, plant fluorescence was assessed with a MacroFluo instrument from Leica Microsystems (Wetzlar, Germany). Fluorescences were quantified with the Meta-Morph Microscopy Automation & Image Analysis Software (Molecular Devices, Sunnyvale, Calif., United States). Background fluorescence in mock treated leaves was set as 1.00.

| SMILES | fold induction at 75 ppm |
| --- | --- |
| CCSC(=O)C1(NC(=O)c2sc(Cl)c(Cl)c2Cl)CC1 [I.011, S-ethyl 1-{[(3,4,5-trichloro-2-thienyl)carbonyl]amino}cyclopropanecarbothioate] | > 2 |
| CCOC(=O)C(CO)NC(=O)c1sc(Cl)c(Cl)c1Cl (centres unmarked) [I.078] | > 2 |

Same assay, conditions: Arabidopsis thaliana, 72 h; 300 ppm; 3rd day after spraying; mock treated leaves set as 1.00; read-out: relative fluorescence value

| SMILES | fold induction at 300 ppm |
| --- | --- |
| CCSC(=O)C1(NC(=O)c2sc(Cl)c(Cl)c2Cl)CC1 [I.011, S-ethyl 1-{[(3,4,5-trichloro-2-thienyl)carbonyl]amino}cyclopropanecarbothioate] | > 2 |
| CCOC(=O)C(NC(=O)c1sc(Cl)c(Cl)c1Cl)c1ccccc1 (centres unmarked) [I.064] | > 2 |
| CCOC(=O)C(CO)NC(=O)c1sc(Cl)c(Cl)c1Cl (centres unmarked) [I.078] | > 2 |

Tested on: Alternaria alternata
Assay: Alternaria alternata in vitro cell test
Format: cell-based
Settings: 120 h, 20 ppm of active ingredient, 5 days incubation, read-out: efficacy (inhibition of fungal growth)
Experimental: (§4) • Solvent: DMSO • Culture medium: 14.6 g anhydrous D-glucose (VWR), 7.1 g Mycological Peptone (Oxoid), 1.4 g granulated Yeast Extract (Merck), QSP 1 liter • Inoculum: spores suspension
(§5) Fungicides were solubilized in DMSO and the solution used to prepare the required range of concentrations. The final concentration of DMSO used in the assay was ≤[…]1%.
A spore suspension of A. alternata was prepared and diluted to the desired spore density.
(§6) Fungicides were evaluated for their ability to inhibit spore germination and mycelium growth in liquid culture assay. The compounds were added in the desired concentration to the culture medium with spores. After 5 days incubation, fungi-toxicity of compounds was determined by spectrometric measurement of mycelium growth. Inhibition of fungal growth was determined by comparing the absorbance values in wells containing the fungicides with the absorbance in control wells without fungicides.

| SMILES | inhibition at 20 ppm [%] |
| --- | --- |
| CCSC(=O)C1(NC(=O)c2sc(Cl)c(Cl)c2Cl)CC1 [I.011, S-ethyl 1-{[(3,4,5-trichloro-2-thienyl)carbonyl]amino}cyclopropanecarbothioate] | ≤ 30 |
| CCOC(=O)C(NC(=O)c1sc(Cl)c(Cl)c1Cl)c1ccccc1 (centres unmarked) [I.064] | ≤ 30 |
| CCOC(=O)C(CO)NC(=O)c1sc(Cl)c(Cl)c1Cl (centres unmarked) [I.078] | ≤ 30 |

Tested on: Xanthomonas campestris pv. campestris
Assay: Xanthomonas campestris pv. campestris in vitro cell test
Format: cell-based
Settings: 20 ppm of active ingredient, 24 h incubation, read-out: efficacy (inhibition of bacteria growth)
Experimental: • Solvent: DMSO • Culture medium: LB broth medium (Luria Broth Miller) Sigma • Inoculum: bacteria suspension
Compounds were solubilized in DMSO and the solution used to prepare the required range of concentrations. The final concentration of DMSO used in the assay was ≤1%.
as §1, §2

| SMILES | inhibition at 20 ppm [%] |
| --- | --- |
| CCSC(=O)C1(NC(=O)c2sc(Cl)c(Cl)c2Cl)CC1 [I.011, S-ethyl 1-{[(3,4,5-trichloro-2-thienyl)carbonyl]amino}cyclopropanecarbothioate] | ≤ 30 |
| CCOC(=O)C(NC(=O)c1sc(Cl)c(Cl)c1Cl)c1ccccc1 (centres unmarked) [I.064] | ≤ 30 |
| CCOC(=O)C(CO)NC(=O)c1sc(Cl)c(Cl)c1Cl (centres unmarked) [I.078] | ≤ 30 |

Tested on: Xanthomonas campestris pv. campestris
Assay: In vivo preventive test on Xanthomonas campestris pv. campestris (black rot on cabbage)
Settings: 125 ppm of active ingredient, evaluated 8 or 10 days after inoculation, read-out: efficacy
Experimental: The tested active ingredients were prepared by homogenization in a mixture of acetone/Dimethyl sulfoxide/Tween®, and then diluted with water to obtain the desired active material concentration.
The young plants of cabbage were treated by spraying the active ingredient prepared as described above. Control plants were treated only with an aqueous solution of acetone/Dimethyl sulfoxide/Tween®.
After 72 hours, the plants were contaminated by spraying the leaves with an aqueous bacteria suspension of Xanthomonas campestris pv. campestris. The contaminated cabbage plants were incubated for 8 or 10 days at 27° C. at 95% relative humidity.
The test was evaluated 8 or 10 days after the inoculation. 0% means an efficacy which corresponds to that of the control plants while an efficacy of 100% means that no disease was observed. […]
Compounds CMP1, CMP2, CMP3 and CMP4 were tested in an in vivo preventive test on Xanthomonas campestris pv. campestris (black rot on cabbage) in the same conditions as described in Example H.

| SMILES | pest or weed control at 125 ppm [%] |
| --- | --- |
| CCOC(=O)C(NC(=O)c1sc(Cl)c(Cl)c1Cl)c1ccccc1 (centres unmarked) [I.064] | 70 to 79 |

Tested on: Colletotrichum lindemuthianum
Assay: Colletotrichum lindemuthianum in vitro cell test
Format: cell-based
Settings: 144 h, 20 ppm of active ingredient, 6 days incubation, read-out: efficacy (inhibition of fungal growth)
Experimental: as §4, §5
A spore suspension of C. lindemuthianum was prepared and diluted to the desired spore density.
as §6, with “inhibit spores” for “inhibit spore”, “After 6” for “After 5”

| SMILES | inhibition at 20 ppm [%] |
| --- | --- |
| CCSC(=O)C1(NC(=O)c2sc(Cl)c(Cl)c2Cl)CC1 [I.011, S-ethyl 1-{[(3,4,5-trichloro-2-thienyl)carbonyl]amino}cyclopropanecarbothioate] | ≤ 30 |
| CCOC(=O)C(NC(=O)c1sc(Cl)c(Cl)c1Cl)c1ccccc1 (centres unmarked) [I.064] | ≤ 30 |

Tested on: Uromyces appendiculatus
Assay: In vivo preventive test on Uromyces appendiculatus (bean rust)
Settings: 240 h, 125 ppm of active ingredient, evaluated 10 days after inoculation, read-out: efficacy
Experimental: as §3, with “bean” for “cabbage”
(§7) After 72 hours, the plants were contaminated by spraying the leaves with an aqueous suspension of Uromyces appendiculatus spores. The contaminated bean plants were incubated for 24 hours at 20° C. and at 100% relative humidity and then for 9 days at 20° C. and at 70-80% relative humidity. The test was evaluated 10 days after the inoculation. 0% means an efficacy which corresponds to that of the control plants while an efficacy of 100% means that no disease was observed.
Compounds CMP5 and CMP6 were tested in an in vivo preventive test on Uromyces appendiculatus (bean rust) in the same conditions as described in Example I.

| SMILES | pest or weed control at 125 ppm [%] |
| --- | --- |
| CCOC(=O)C(CO)NC(=O)c1sc(Cl)c(Cl)c1Cl (centres unmarked) [I.078] | 90 to 100 |

Same assay, conditions: 240 h, 500 ppm of active ingredient, evaluated 10 days after inoculation, read-out: efficacy

| SMILES | pest or weed control at 500 ppm [%] |
| --- | --- |
| CCOC(=O)C(NC(=O)c1sc(Cl)c(Cl)c1Cl)c1ccccc1 (centres unmarked) [I.064] | 90 to 100 |
| CCOC(=O)C(CO)NC(=O)c1sc(Cl)c(Cl)c1Cl (centres unmarked) [I.078] | 90 to 100 |

Tested on: not listed separately
Assay: LogP by HPLC on reversed phase columns (EEC directive 79/831 Annex V.A8)
Format: physicochemical
Settings: reversed phase HPLC columns, given in the preparation examples; method not marked
Method in brief: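 LogP derived from retention time by linear interpolation against a C3–C16 alkan-2-one calibration series of known LogP. Measured by HPLC on reversed-phase columns following EEC 79/831 Annex V.A8. UV spectra over 200–400 nm at signal peaks gave lambda-max.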

| SMILES | chromatographic logP |
| --- | --- |
| CCSC(=O)C1(NC(=O)c2sc(Cl)c(Cl)c2Cl)CC1 [I.011, S-ethyl 1-{[(3,4,5-trichloro-2-thienyl)carbonyl]amino}cyclopropanecarbothioate] | 4.01 |

Same assay, conditions: reversed phase HPLC columns, method [a]: LC-UV, in an acidic range, with 0.1% formic acid in water and acetonitrile as eluent (linear gradient from 10% to 95% acetonitrile)

| SMILES | chromatographic logP |
| --- | --- |
| CCSC(=O)C1(NC(=O)c2sc(Cl)c(Cl)c2Cl)CC1 [I.011, S-ethyl 1-{[(3,4,5-trichloro-2-thienyl)carbonyl]amino}cyclopropanecarbothioate] | 4.01 |
| CCOC(=O)C(NC(=O)c1sc(Cl)c(Cl)c1Cl)c1ccccc1 (centres unmarked) [I.064] | 4.89 |
| CCOC(=O)C(CO)NC(=O)c1sc(Cl)c(Cl)c1Cl (centres unmarked) [I.078] | 2.75 |

Tested on: Colletotrichum lindemuthianum
Assay: In vivo preventive test on Colletotrichum lindemuthianum (Antrachnose on bean)
Settings: 144 h, 500 ppm of active ingredient, inoculation 72 h after spraying, evaluated 6 days after inoculation, read-out: efficacy
Experimental: as §3, with “bean” for “cabbage”
as §7, with “of Colletotrichum lindemuthianum” for “of Uromyces appendiculatus”, “for 5” for “for 9”, “at 90%” for “at 70-80%”, “evaluated 6” for “evaluated 10”
Compound CMP1 was tested in an in vivo preventive test on Colletotrichum lindemuthianum (Antrachnose on bean) in the same conditions as described in Example F.

| SMILES | pest or weed control at 500 ppm [%] |
| --- | --- |
| CCOC(=O)C(NC(=O)c1sc(Cl)c(Cl)c1Cl)c1ccccc1 (centres unmarked) [I.064] | 80 to 89 |
| CCOC(=O)C(CO)NC(=O)c1sc(Cl)c(Cl)c1Cl (centres unmarked) [I.078] | 90 to 100 |
